Results on 52 compounds are retold here after PubChem BioAssay AID1996.

Molecules are shown by their SMILES. ≈ marks a conversion by molar mass, not a printed value.

Usually kinetic solubility stands for the concentration staying in solution when a stock, usually in DMSO, is diluted into the medium.

For the series the following is noted: buffer; pH 7.4; 200.0 µM.
Consider `COc1ccccc1CNC(=O)CCCNC(=O)c1ccc(Cl)cc1`, for which the kinetic solubility amounted to 20.6 µg/mL (≈ 57.1 µM). Turning to `CN(CC(=O)N1CCCC1)S(=O)(=O)c1cccc(Cl)c1`, the solubility (kinetic) was above 47.5 µg/mL. Regarding `CCOC(=O)Cc1csc(NC(=O)c2ccc(Cl)s2)n1`, the kinetic solubility was found to be 13.1 µg/mL (≈ 39.6 µM). For `N/C(=N\OC(=O)c1ccccc1F)c1cccc([N+](=O)[O-])c1`, the solubility (kinetic) amounted to 2.1 µg/mL (≈ 6.93 µM). With `CC1CN(C(=S)Nc2cccc(F)c2)CC(C)O1` (configuration not stated), the kinetic solubility is 40.2 µg/mL (≈ 150 µM). Turning to `O=C(CC1CCC1)Nc1cccc2c([N+](=O)[O-])cccc12`, the solubility (kinetic) amounted to 5.8 µg/mL (≈ 20.4 µM). `O=C(NCCOc1ccc(Cl)cc1)C(=O)NCC1CCCO1` (configuration not stated): the solubility (kinetic) was 33.6 µg/mL (≈ 103 µM).

`CC(C)(C)c1nc2cc(Cl)c([N+](=O)[O-])cc2o1` registered a kinetic solubility of 6.5 µg/mL (≈ 25.5 µM). In the case of `Cn1c(N)c(C(=O)COC(=O)c2ccc(Cl)nc2)c(=O)n(C)c1=O` it was 46.2 µg/mL (≈ 131 µM); in that of `NS(=O)(=O)c1cccc(NC(=O)c2ccc(NS(=O)(=O)c3cccc([N+](=O)[O-])c3)cc2)c1`, above 71.5 µg/mL.

For `Cl.O=C(O)C1=CCCNC1`, the solubility (kinetic) was above 24.5 µg/mL. `N#CCCOC1(C#CCN2CCCC2)CCCCC1` returned a kinetic solubility of 32.2 µg/mL (≈ 124 µM).

On to `CCC(=O)N1CCN(c2ccnc3cc(Cl)ccc23)CC1`, for which the solubility (kinetic) stood at 40.4 µg/mL (≈ 133 µM). The same measure for `CCc1ccc(NC(=O)C2C3CCC(O3)C2C(=O)O)cc1` (configuration not stated): 39.3 µg/mL (≈ 136 µM); for `Cc1csc(SC(C)C(=O)Nc2ccc(F)cc2Cl)n1` (configuration not stated): 44.9 µg/mL (≈ 136 µM). In the case of `CN1/C(=C/C=C(C#N)C#N)C=Cc2ccccc21` it was 1.1 µg/mL (≈ 4.72 µM); in that of `CC(C)CC(N(C)C)C1(c2ccc(Cl)cc2)CCC1.Cl` (configuration not stated), below 0.7 µg/mL; in that of `C=CCn1c(C(C)(C)C)nc2ccccc21`, 24.6 µg/mL (≈ 115 µM).

As for `Cc1ccc(C2(c3noc(CN(C)Cc4cccnc4)n3)CCCC2)cc1`, the solubility (kinetic) is 42.1 µg/mL (≈ 116 µM). Consider `C=CCNC(=O)NC(=O)c1csc([N+](=O)[O-])c1`, for which the solubility (kinetic) stood at 2 µg/mL (≈ 7.84 µM). The compound `N#Cc1ccc(NC(=O)COC(=O)c2cccnc2Cl)cc1` yielded a solubility (kinetic) above 47.4 µg/mL.

For the compound `Cc1ccc(C)n1-c1ccc(C(=O)NCc2cccnc2)cc1`, the solubility (kinetic) was above 45.8 µg/mL. The same measure for `CN(C)c1cccc2cccc(N(C)C)c12`: 31.2 µg/mL (≈ 146 µM). In turn, `O=S(=O)(Cc1noc(-c2ccc(Cl)cc2)n1)Cc1ccco1` yielded a kinetic solubility of 3 µg/mL (≈ 8.86 µM). `CCOC(=O)C1(CC2CC2)CCN(Cc2ccc(C(=O)OC)cc2)CC1` came in with a solubility (kinetic) of 42.8 µg/mL (≈ 119 µM). `CCC(=NCCCn1ccnc1)c1c(O)n(-c2ccccc2)c(=O)[nH]c1=O` came in with a kinetic solubility above 55.1 µg/mL. `COc1ccc(CNC2CCCc3ccccc32)c(OC)c1` (configuration not stated) registered a solubility (kinetic) of 31.4 µg/mL (≈ 106 µM). In the case of `CC(NC(=O)C1CCC(C)(C(=O)O)C1(C)C)c1ccccc1` (configuration not stated) it was above 45.5 µg/mL; in that of `O=C(CN1C(=O)C2CC=CCC2C1=O)NC1CCCCC1` (configuration not stated), 42.5 µg/mL (≈ 146 µM). `O=C(NC(=O)c1ccccc1)Nc1ccccn1`: the solubility (kinetic) stood at 9.5 µg/mL (≈ 39.4 µM).

As to `CC1(C)CC(=O)C=C(Nc2ccccc2)C1`, the kinetic solubility was above 32.3 µg/mL. On to `O=C(O)C1CC=CCC1C(=O)Nc1ccc2c(c1)CCC2` (configuration not stated), for which the solubility (kinetic) is above 42.8 µg/mL. Turning to `O=C(O)c1ccc(Nc2nc(-c3cccnc3)cs2)cc1O`, the solubility (kinetic) was above 47 µg/mL. `C=CCNC(=O)C(C)N1c2cccc3cccc(c23)S1(=O)=O` (configuration not stated) returned a solubility (kinetic) above 47.5 µg/mL. `C=C1CCc2c([nH]c3ccc(OCC(C)C)cc23)C1=O` yielded a kinetic solubility of 0.8 µg/mL (≈ 2.97 µM). The same measure for `Cc1ccc(NC(=O)C2=CC=CN3CCS(=O)(=O)N=C23)cc1`: 11.6 µg/mL (≈ 36.6 µM); for `CCOc1cccc2sc(=NC(=O)c3ccco3)n(CC(=O)OC)c12`: 2 µg/mL (≈ 5.55 µM); for `O=C(Nc1ccccc1C(F)(F)F)c1cc2ccccc2o1`: below 0.7 µg/mL. In turn, `Cc1cccc(C(=O)OCC(=O)N2CCCCCC2)c1` displayed a kinetic solubility above 41.3 µg/mL. `COc1ccc(OC)c([C@@H](O)[C@H](C)NC(C)(C)C)c1.Cl` returned a solubility (kinetic) above 45.6 µg/mL.

Take `CC1CCC2(CC1)NC(=O)N(CC(=O)Nc1ccc3c(c1)OCO3)C2=O` (configuration not stated): the kinetic solubility amounted to 15.6 µg/mL (≈ 43.4 µM). The compound `Cc1nn(C)c(=O)n1-c1ccccc1` gave a solubility (kinetic) above 28.4 µg/mL. In the case of `C=CCN1CCN(C(=O)c2ccc(-c3ccccc3)cc2)CC1` it was 32.3 µg/mL (≈ 105 µM); in that of `COc1ccc(CCCC(=O)NCCc2ccccc2)cc1`, 35.2 µg/mL (≈ 118 µM). In turn, `COc1ccc(/C=N/NC(N)=S)cc1` returned a solubility (kinetic) above 31.4 µg/mL. In the case of `COC(=O)CNC(=O)c1ccc(F)cc1` it was 27.1 µg/mL (≈ 128 µM); in that of `NS(=O)(=O)c1cccc(NC(=O)COC(=O)CC2Sc3ccccc3NC2=O)c1` (configuration not stated), 32.5 µg/mL (≈ 74.6 µM). As to `CC(C)(C)c1ccc(/C=C2\SC(=O)N=C2N)cc1`, the solubility (kinetic) was below 0.3 µg/mL. `c1ccc(-c2cc(N3CCCCC3)c3ccccc3n2)cc1` registered a kinetic solubility below 0.3 µg/mL. Consider `C[C@@H]1NC(=O)N(c2ccc(F)cc2)C1=O`, for which the kinetic solubility is 31.1 µg/mL (≈ 149 µM).

For the compound `COc1cccc(CNCCO)c1OCc1ccc(Cl)cc1.Cl`, the kinetic solubility was above 53.7 µg/mL.

For the compound `O=C(N1CCCCC1)N1CCN(S(=O)(=O)c2ccccc2)CC1`, the kinetic solubility was above 50.6 µg/mL.
